From patent US20060252707A1, “Pharmaceutical composition for the treatment and/or the prevention of atherosclerosis from infectious origin” (UNIVERSITE DE LIEGE, priority 2003, published 2006)

Legend:
Assay type in all cases: cell-based, human
[1] = system: THP-1 cells conditioned with Chlamydia pneumoniae; assay: Oxidant activity (ethylene production from KMB, gas liquid chromatography) of THP-1 cells conditioned with Chlamydia pneumoniae, then stimulated by PMA; conditions: for Ethylene: % of THP-1 + Chlamydia
Method: This model has been described in details in Mouithys Mickalad et al. (Biochem Biophys Res Comm 2001, 287: 781-788). Treatment of the Cells with Chlamydia pneumoniae:
The monocytes (in multiwell plates, 2×10^6 cells/well) are conditioned by a pre-incubation of 19 hours with elementary bodies of Chlamydia pneumoniae (at a dose equivalent to a mean endotoxin concentration of 3.3 pg). The elementary bodies are obtained by Chlamydia culture in MacCoy cells (American Type Culture Collection, Rockville, USA).
(§1) After incubation with C. pneumoniae, the cells are washed and detached from the wells; they are put in sterile vials and an oxidable substrate, α-keto-methyl butyric acid (KMB) at 10^−3 M, is added. The vial is sealed and the following reagents are added by needle puncture. through the septum: 200 U horseradish peroxidase (HRP) and 10^−7 M phorbol myristate acetate (PMA).
(§2) PMA is a monocyte activator, enhancing the superoxide anion production by these cells. Superoxide anion dismutates into hydrogen peroxide (H2O2), which is used by HRP to form more oxidant species, able to oxidize KMB, releasing ethylene. After 3 hours of incubation at 37° C, ethylene, which has accumulated in the gaseous phase of the sealed vial is measured by gas liquid chromatography, on a Porapak T column (TM) equipped with flame ionisation detector. These assays can be made with the prior addition of a reagent able to inhibit or to stimulate the monocytes, the reagent being added, either at pre-incubation (at the same time as the Chlamydia EB), or at the moment of PMA activation.

[2] = system: nuclear transcription factor kappaB (NF-κB); assay: Activation of NF-κB (binding to DNA) by electrophoretic mobility shift assay in THP-1 cells pre-incubated with Chlamydia; conditions: for NF-κB relative value (%): THP-1 + Chlamydia, % of THP-1 without preincubation with C pneumoniae (FIG. 7)
Method: FIG. 7 represents the effects of pre-incubation with Chlamydia on the activity of the nuclear transcription factor kappaB (NF-kB) (column 2). NF-kB is expressed in % of column 1 (THP-1 cells without preincubation with C pneumoniae)
The activation of NF-κB was measured by the technique of <<electrophoretic mobility shift assay>> (EMSA) (Schoonbroodt et al., 2000, J Immunol. 164: 4292-4300; Nys et al., 2003, Nitric Oxide 9: 33-43) (FIG. 7). The activation of NF-κB is expressed in % of control cells (cells which have not been pre-incubated with Chlamydia) (column 1). The incubation of monocytes with C. pneumoniae activates the NF-κB binding to DNA (FIG. 7, column 2).

TNFα = TNFα production (ELISA, culture supernatant) by THP-1 cells pre-incubated with Chlamydia pneumoniae; conditions: 10^−9 M to 10^−5 M; THP-1 pre-incubated (19h) with Chlamydia
Method: (§3) By using this model, one may verify that the monocyte incubation with C. pneumoniae during 19 hours, enhances the production of TNFα(FIG. 6, part 1) and IL-8 ([…]), as measured by immunological methods (ELISA type) in the culture supernatant.

IL-8 = IL-8 production (ELISA, culture supernatant) by THP-1 cells pre-incubated with Chlamydia pneumoniae; conditions: 10^−9 M to 10^−5 M; THP-1 pre-incubated (19h) with Chlamydia
Method: as §3

p22^phox = assay: Gene expression (PCR) of NADPH-oxidase subunit p22phox in THP-1 cells incubated with Chlamydia; conditions: FIG. 16; 10^−4 to 10^−6 M
Method: FIG. 16 represents the genetic expression of one of the subunits of NADPH-oxidase, the p22^phox, and the effects of glucocorticoids, hydrocortisone (HCT) and methylprednisolone (MPL) (data are expressed as relative values by comparison with a reference gene).
By the PCR (<<polymerase chain reaction>>) method, it was observed that the incubation of monocytes with C. pneumoniae increased the expression of the genes (FIG. 8, column 2 compared to column 1) coding for interleukines 1β (IL-1β) (FIG. 8, part 1), 6 (IL-6) (FIG. 8, part 2) and 8 (IL-8) (FIG. 8, part 3), coding for inducible cyclo-oxygenase (COX-2) (FIG. 8, part 4) and coding for one of the subunits of NADPH-oxidase, the p22 protein (p22^phox) (FIG. 8, part 5) (results are presented as relative values by comparison with a reference gene).

[3] = system: THP-1 cells conditioned with Escherichia Coli endotoxin (LPS); assay: Oxidant activity (ethylene production) of THP-1 cells conditioned with Escherichia Coli endotoxin (LPS), then stimulated by PMA; conditions: for Ethylene: FIG. 9 part 2, % of THP-1 + LPS, PMA 10^−7 M
Method: FIG. 9 represents the effects of hydrocortisone (HCT) on the oxidant activity of THP-1 cells conditioned either with Chlamydia pneumoniae (part 1; n=13) or with Escherichia Coli endotoxin (LPS) (part 2), and then stimuled by PMA 10^−7 M. Ethylene is expressed in % of the value measured for THP-1 cells incubated with Chlamydia (column 2 for part 1), or incubated with LPS (column 1 for par 2).
as §1, §2
Two glucocorticoids were tested: hydrocortisone and methylprednisolone. […] On the contrary, HCT is an inhibitor on the oxidation rate when the cells are conditioned with endotoxins (LPS) of Escherichia coli (FIG. 9 part 2, columns 2, 3 and 4) (Ethylene values are expressed in % of the control cells=THP-1 cells stimulated by PMA 10^−7 M after pre-incubation with Chlamydia (part 1, column 2) or LPS ([…]

THP-1 cell line = assay: Model of foam cell formation from THP-1 monocytes (Chlamydia pneumoniae, then LDL or liposomes, Oil Red O); conditions: LDL
Method: A model of foam cell formation from monocytes (THP-1 cell line) was developed. The cells are incubated for 19 hours with Chlamydia pneumoniae. This incubation is followed by the addition of human LDL or liposomes, and another incubation period of 48 hours. At the end of this second period of incubation, the cells are fixed and stained with oil Red O (Sigma, Belgium) (Smirnova et al., 2004, Am J Physiol Heart Circ Physiol. March 11 (Epub ahead of print) to highlight the foam cells. When drugs are used in this model, they are added at the same time as the LDL or liposomes. LDL are prepared from human blood drawn on EDTA. They are isolated by sequential flotation centrifugation with increased concentrations of KBr. After their isolation, LDL are dialysed, sterilised by filtration and their purity is confirmed by electrophoresis. Liposomes are lipid vesicles prepared by extrusion with cholesterol esters and phospholipids, mimicking lipoproteins.

Question: With `C[C@]12CCC(=O)C=C1CC[C@@H]1[C@@H]2[C@@H](O)C[C@@]2(C)[C@H]1CC[C@]2(O)C(=O)CO` [HCT, hydrocortisone] as the compound, how does the Ethylene ([1]; FIG. 9 part 1, 10^−4 M, PMA 10^−7 M) read?
Answer: 108%

Question: What about the Ethylene ([1]; FIG. 9 part 1, 10^−5 M, PMA 10^−7 M) of the same compound?
Answer: 119%

Question: What about the Ethylene ([1]; FIG. 9 part 1, 10^−6 M, PMA 10^−7 M) of the same compound?
Answer: 139%

Question: And the Ethylene ([1]; FIG. 19, drug alone 10^−4 M, pre-incubation with Chlamydia)?
Answer: 84.0%

Question: And the Ethylene ([1]; FIG. 19, drug alone 10^−5 M, pre-incubation with Chlamydia)?
Answer: 116.0%

Question: What about the Ethylene ([1]; FIG. 20, drug alone 10^−4 M, pre-incubation with Chlamydia) of the same compound?
Answer: 98.0%

Question: And the Ethylene ([1]; FIG. 20, drug alone 10^−5 M, pre-incubation with Chlamydia)?
Answer: 85.0%

Question: And the Ethylene ([1]; FIG. 21, drug alone 10^−4 M, pre-incubation with Chlamydia)?
Answer: 104.0%

Question: And the Ethylene ([1]; FIG. 21, drug alone 10^−5 M, pre-incubation with Chlamydia)?
Answer: 72.0%

Question: What about the Ethylene ([1]; FIG. 22, drug alone 10^−4 M, pre-incubation with Chlamydia) of the same compound?
Answer: 118.0%

Question: What about the Ethylene ([1]; FIG. 22, drug alone 10^−5 M, pre-incubation with Chlamydia) of the same compound?
Answer: 68.1%

Question: And the “effect on oxidant activity / oxidation rate” value ([1]; drug added at cell conditioning with Chlamydia (pre-incubation 19 hours), then PMA 10^−7 M)?
Answer: either does not modify the oxidant capacity, or even increases the oxidation rate

Question: What about the “NF-κB relative value (%)” value ([2]; 10^−5 M) of the same compound?
Answer: 396%

Question: And the “NF-κB relative value (%)” value ([2]; 10^−6 M)?
Answer: 480%

Question: And the “effect on the activation of NF-κB” value ([2]; at 10^−5 and 10^−6 M)?
Answer: without significant effect

Question: And the “activity of NF-κB” value ([2]; at 10^−6 M)?
Answer: slightly stimulated

Question: What about the “effect on production of TNFα” value (TNFα) of the same compound?
Answer: dose-dependent inhibiting effect

Question: What about the “effect on production of IL-8” value (IL-8) of the same compound?
Answer: dose-dependent inhibiting effect

Question: What about the “effect on gene expression of p22^phox” value (p22^phox) of the same compound?
Answer: inhibitors

Question: And the Ethylene ([3]; 10^−4 M)?
Answer: 19%

Question: And the Ethylene ([3]; 10^−5 M)?
Answer: 50%

Question: What about the Ethylene ([3]; 10^−6 M) of the same compound?
Answer: 57%

Question: What about the “effect on oxidation rate” value ([3]; cells conditioned with endotoxins (LPS) of Escherichia coli, 10^−4 to 10^−6 M) of the same compound?
Answer: inhibitor

Question: What about the “effect on transformation into foam cells” value (THP-1 cell line; 10^−5 M) of the same compound?
Answer: favouring effect

Question: What about the “effect on transformation into foam cells” value (THP-1 cell line; at 10^−5 and 10^−6 M) of the same compound?
Answer: does not inhibit the transformation into foam cells
